Several values for one entry are separate records, joined by “and”; a condition that tells them apart may be missing. Equal values may be shown once.
Columns and labels:
Mus musculus [1] = test: Antidepressant activity determined by duration of immobility after intraperitoneal administration at 100 mg/kg in mice; format: functional
Mus musculus [2] = test: Antidepressant activity determined by percentage change from control after intraperitoneal administration at 100 mg/kg in mice; n = 6; format: functional

Row | SMILES | Activity (Mus musculus [1]) | Activity (Mus musculus [2]) | Activity (Mus musculus [1]; 100 mg/kg)
1 | CN(C)c1ccc(C2CC(c3ccccc3)=NN2c2ccccc2)cc1 (stereo unspecified) | 22.95 s | -59.25% | –
2 | Oc1ccc2ccccc2c1C1=NN(c2ccccc2)C(c2ccccc2)C1 (stereo unspecified) | 50.33 s | -10.63% | –
3 | COc1cc(C2CC(c3c(O)ccc4ccccc34)=NN2c2ccccc2)cc(OC)c1OC (stereo unspecified) | 49.26 s | -12.53% | –
4 | Oc1ccc(C2=NN(c3ccccc3)C(c3cccc(Br)c3)C2)cc1 (stereo unspecified) | 32.46 s | -42.18% | –
5 | CN(C)c1ccc(C2CC(c3ccccc3O)=NN2c2ccccc2)cc1 (stereo unspecified) | 35.85 s | -36.34% | –
6 | Cc1ccc(C2=NN(c3ccccc3)C(c3ccc(N(C)C)cc3)C2)cc1 (stereo unspecified) | 50.15 s | -10.95% | –
7 | Oc1ccc2ccccc2c1C1=NN(c2ccccc2)C(c2ccc(Br)cc2)C1 (stereo unspecified) | 25.4 s | -54.1% | –
8 | Oc1ccc2ccccc2c1C1=NN(c2ccccc2)C(c2ccc(Cl)cc2)C1 (stereo unspecified) | 46.28 s | -17.82% | –
9 | COc1ccc(C2CC(c3c(O)ccc4ccccc34)=NN2c2ccccc2)cc1 (stereo unspecified) | 50.78 s | -9.83% | –
10 | CN(C)c1ccc(C2CC(c3ccc(Br)cc3)=NN2c2ccccc2)cc1 (stereo unspecified) | 41.88 s | -25.63% | –
11 | CN(C)CCCN1c2ccccc2CCc2ccc(Cl)cc21 [CLOMIPRAMINE] | – | – | 33.81 s and 18.68 s

— ChEMBL document CHEMBL1141035, “Synthesis and antidepressant activity of some 1,3,5-triphenyl-2-pyrazolines and 3-(2''-hydroxy naphthalen-1''-yl)-1,5-diphenyl-2-pyrazolines” (2005)
